Experimental findings from patent US20170369414A1, “O-Quinone Compounds as Agents Neutralising Nitric Oxide” (Institut des Substances Végétales, priority 2015, published 2017) are described below.

The nature of this experiment: Method for evaluating the neutralization of nitric oxide (amperometric probe, real time). The note with it: phosphate buffer pH 7.4, 25° C., between T1 and T2=T1+30 s, corrected for solvent control. Here is the method:
For this, the nitric oxide is prepared in a separated container by achieving reduction of sodium nitrite with ferrous sulfate and carry away with a nitrogen gas stream into another container containing the product to be tested in solution in a buffer. In this solution, is placed an amperometric probe which measures in real time the current produced by the presence of nitric oxide in solution.
Nitric oxide is prepared extemporaneously in a container A, obturated with a flexible polymeric plug through which pass an entering tubing and an exiting tubing, with an inner diameter comprised between 50 μm and 300 μm, but particularly of 100 μm (cf. FIG. 1), with a volume comprised between 10 ml and 100 ml, but particularly of 30 ml, by adding a volume comprised between 0.1 and 2 ml, but particularly of 0.5 ml of an aqueous solution of sodium nitrite (NaNO2, ref. Sigma-Aldrich 237213) at a concentration comprised between 0.10% and 2.00% but particularly of 0.70%, at a volume comprised between 5 ml and 80 ml of the following aqueous solution:
The container B in which is measured the nitric oxide is a container opaque to light, with a double jacket allowing circulation of water maintaining the temperature at 25° C., obturated with a plug through which pass the tubing stemming from the container A and an exhaust tubing (cf. FIG. 1) with a volume comprised between 10 ml and 100 ml, preferably 30 ml which receives a volume comprised between 5 ml and 80 ml, preferably 20 ml, of an aqueous solution of phosphate buffer at pH 7.4.
Once they are mixed, the solutions are stirred for the whole period of the measurement with a magnetic stirrer, in container A and in container B.
Nitrogen gas is admitted at a flow rate comprised between 20 ml/min and 120 ml/min, preferably 80 ml/min in the bottom of the container A. The nitrogen thereby carries away the nitric oxide through the exiting tubing of container A as far as into container B where it is measured with a device provided for this purpose equipped with an amperometric probe provided with a specific membrane (apparatus of ref. TBR 1025 from World Precision Instruments, probe ISO-NOP). The probe thereby delivers a variable current between 10 and 1,000 nA proportional to the concentration of nitric oxide in the tested solution, of the order of magnitude of μM. The electric current produced by the probe under the influence of nitric oxide is recorded with a suitable device.
Before any measurement, the probe is calibrated by measuring the current produced by releasing known increasing amounts of nitric oxide. It is thus checked that there exists a linear relationship between the electric current produced by the probe and the molar concentration of nitric oxide and the correspondence between this electric current and the molar concentration of nitric oxide is determined. For this, 20 ml of the following aqueous solution is placed in the container B disconnected from the container A during the calibration period:
50 μl, 100 μl, 150 μl and 200 μl of a solution of sodium nitrite (NaNO2, ref. Sigma-Aldrich 237213) are then successively added to a concentration of 360 μM.
The curve giving the correspondence between the nitric oxide concentration in the reaction medium and the electric intensity produced by the probe expressed in nA is plotted for each addition of the nitric oxide solution.
During a typical measurement, 20 ml of the ferrous sulfate solution are placed in the container A and 20 ml of phosphate buffer at pH 7.4 are placed in the container B. In the container A, nitrogen gas is admitted for 10 mins, which passes in transit towards the container B, in order to remove the dissolved oxygen present in the solutions of the containers A and B. After these 10 mins, the recording of the measurement of nitric oxide is launched.
At time T0, the sodium nitrite solution is injected into the container A through the flexible polymeric plug by means of a syringe equipped with a needle.
For `O.O.O=c1c(O)c(-c2ccc(O)c(O)c2)oc2cc(O)cc(O)c12` [Quercetin, Quercetin dihydrate], the “E, neutralization effect of nitric oxide (nitric oxide neutralized per second and per mg of product)” value was 0.087 µM/s/mg. In the case of (+) catechin hydrate, the “E, neutralization effect of nitric oxide (nitric oxide neutralized per second and per mg of product)” value stood at 0.13 µM/s/mg.

As to `O=C(O)/C=C/c1ccc(O)c(O)c1` [Caffeic acid], the “E, neutralization effect of nitric oxide (nitric oxide neutralized per second and per mg of product)” value was 0.957 µM/s/mg. Under `O=c1cc(-c2ccc(O)c(O)c2)oc2cc(O)cc(O)c12` [Luteolin] stands 0.174 µM/s/mg. Under `O=C(O)/C=C\C1=CC(=O)C(=O)C=C1` [caffeoyl-quinone, ortho-quinone of caffeic acid] stands 24.36 µM/s/mg; under `O=C(/C=C/c1ccc(O)c(O)c1)O[C@H](Cc1ccc(O)c(O)c1)C(=O)O` [Rosmarinic acid], 0.043 µM/s/mg; under `O=C(O)/C=C/c1ccc(O)cc1` [p-coumaric acid], 0.13 µM/s/mg. `C[C@@H]1O[C@@H](O[C@@H]2[C@@H](O)[C@H](OCCc3ccc(O)c(O)c3)O[C@H](CO)[C@H]2OC(=O)/C=C/c2ccc(O)c(O)c2)[C@H](O)[C@H](O)[C@H]1O` [Verbascoside]: the “E, neutralization effect of nitric oxide (nitric oxide neutralized per second and per mg of product)” value came to 0.058 µM/s/mg.
